Measurements as given in ChEMBL document CHEMBL1201862, “PubChem BioAssay data set” (2004).
Active and inactive are the calls of the source.

Legend:
[1] = biological target: T1, G-protein coupled receptor 35 (Homo sapiens, UniProt Q9HC97); assay: SAR analysis of Antagonists of the GPR35 Receptor using an Image-Based Assay - Set 3. [Related pubchem assays (depositor defined):AID2013, AID2026]; format: functional
Cannabinoid receptor 1 [2] = biological target: T2, Cannabinoid receptor 1 (Homo sapiens, UniProt P21554); assay: SAR analysis of antagonists of the Cannabinoid Receptor 1 using an Image-Based Assay - Set 2. [Related pubchem assays (depositor defined):AID2013, AID2026]; format: functional
[3] = biological target: T1, G-protein coupled receptor 35; assay: SAR analysis of Agonists of the GPR35 Receptor using an Image-Based Assay - Set 2. [Related pubchem assays (depositor defined):AID2013, AID2026]; format: functional
Cannabinoid receptor 1 [4] = biological target: T2, Cannabinoid receptor 1; assay: SAR analysis of agonists of the Cannabinoid Receptor 1 using an Image-Based Assay - Set 2. [Related pubchem assays (depositor defined):AID2013, AID2026]; format: functional
Cannabinoid receptor 2 [5] = biological target: T3, Cannabinoid receptor 2 (Homo sapiens, UniProt P34972); assay: SAR analysis of agonists of the Cannabinoid Receptor 2 using an Image-Based Assay. [Related pubchem assays (depositor defined):AID2013, AID2026]; format: functional
Cannabinoid receptor 2 [6] = biological target: T3, Cannabinoid receptor 2; assay: SAR analysis of antagonists of the Cannabinoid Receptor 2 using an Image-Based Assay. [Related pubchem assays (depositor defined):AID2013, AID2026]; format: functional
[7] = biological target: G-protein coupled receptor 55 (Homo sapiens, UniProt Q9Y2T6); assay: GPR55 antagonists blocking LPI-driven arrestin recruitment, primary screen, imaging, U2OS, beta-arrestin-GFP, LPI agonist (AID 2013); format: functional;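 further: antagonist potency measured as reduced agonist-driven arrestin aggregation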
Vero [8] = assay: West Nile virus CPE inhibition, SAR follow-up, cell-based, synthesized analogs (AID 2238); format: functional; details: Chlorocebus sabaeus
Vero [9] = assay: cytotoxicity of synthesized analogs in Vero 76, SAR follow-up, cytotoxicity control for West Nile virus antiviral project, Vero 76 cells (AID 2414); format: functional; details: Chlorocebus sabaeus
Vero [10] = assay: Vero E6 cell cytotoxicity, SAR follow-up, cytotoxicity control for West Nile virus antiviral project, synthesized analogs (AID 2244); format: functional; details: Chlorocebus sabaeus
Vero [11] = assay: cytotoxicity of synthesized analogs in Vero cells, SAR follow-up, cytotoxicity control for West Nile virus antiviral project, cell-based, set II (AID 2402); format: functional; details: Chlorocebus sabaeus
Vero [12] = assay: West Nile virus antiviral activity, cell-based, CPE readout (AID 1621); format: functional; details: Chlorocebus sabaeus
[13] = mammalian cell cytotoxicity, dose response, cytotoxicity control, plate reader, cherry-pick samples (AID 504397); format: functional, cell-based
[14] = biological target: T4, Sphingosine 1-phosphate receptor 4 (Homo sapiens, UniProt O95977); assay: Fluorescence dose response cell-based high throughput screening assay for agonists of the Sphingosine 1-Phosphate Receptor 4 (S1P4). [Related pubchem assays: 1509 (Primary screen.), 1523 (Confirmation screen in triplicates.)]; format: functional
T4 sequence (O95977 whole entry): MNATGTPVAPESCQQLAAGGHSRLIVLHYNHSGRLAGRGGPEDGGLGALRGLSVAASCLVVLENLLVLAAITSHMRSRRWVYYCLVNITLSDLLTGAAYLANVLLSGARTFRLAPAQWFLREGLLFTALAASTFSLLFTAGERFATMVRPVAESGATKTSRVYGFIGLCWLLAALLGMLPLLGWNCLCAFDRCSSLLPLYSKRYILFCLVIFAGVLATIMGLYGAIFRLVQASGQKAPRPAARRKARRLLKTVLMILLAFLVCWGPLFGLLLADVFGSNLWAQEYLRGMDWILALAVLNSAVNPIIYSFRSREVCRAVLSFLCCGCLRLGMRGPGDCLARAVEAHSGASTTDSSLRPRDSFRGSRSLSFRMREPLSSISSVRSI

[15] = biological target: Sphingosine 1-phosphate receptor 1 (Homo sapiens, UniProt P21453); assay: Fluorescence-based counterscreen assay for S1P4 agonists: Cell-based dose response high throughput screening assay to identify agonists of the Sphingosine 1-Phosphate Receptor 1 (S1P1). [Related pubchem assays (depositor defined):AID1509, AID1523, AID1801, AID463107, AID463118, AID463119, AID463122, AID463123, AID463129, AID463225, AID504400, AID504460]; format: functional
Troponin, cardiac muscle = Troponin, cardiac muscle (Homo sapiens, UniProt P19429+P45379+P63316); assay: Fluorescence-based biochemical high throughput dose response assay for activators of the calcium sensitivity of cardiac Regulated Thin Filaments (RTF). [Related pubchem assays (depositor defined):AID493008, AID493018, AID504382, AID504383]; format: protein-complex assay
[16] = biological target: T5, Tyrosine-protein phosphatase non-receptor type 7 (Homo sapiens, UniProt P35236); assay: redox-dependent HePTP inhibition, mechanism study, biochemical, fluorescence (AID 2068); format: functional
T5 sequence (P35236 whole entry): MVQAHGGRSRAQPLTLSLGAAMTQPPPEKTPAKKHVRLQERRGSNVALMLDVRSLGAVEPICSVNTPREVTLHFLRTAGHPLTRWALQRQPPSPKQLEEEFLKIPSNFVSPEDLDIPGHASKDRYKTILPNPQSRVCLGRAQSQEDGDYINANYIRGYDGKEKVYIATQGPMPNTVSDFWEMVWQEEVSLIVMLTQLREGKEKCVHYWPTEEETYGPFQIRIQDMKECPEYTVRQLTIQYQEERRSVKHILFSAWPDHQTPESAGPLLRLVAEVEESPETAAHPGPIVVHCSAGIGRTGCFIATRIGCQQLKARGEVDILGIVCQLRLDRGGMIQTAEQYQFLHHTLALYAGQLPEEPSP

[17] = biological target: T6, Kappa-type opioid receptor (Homo sapiens, UniProt P41145); assay: KOR agonist analogs, imaging readout, SAR follow-up, image-based (AID 2359); format: functional
Mu-type opioid receptor [18] = biological target: T7, Mu-type opioid receptor (Homo sapiens, UniProt P35372); assay: MOR antagonists, SAR follow-up, image-based (AID 2420); format: functional;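 further: compounds added before stimulation of receptor with agonist DAMGO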
[19] = biological target: T8, Delta-type opioid receptor (Homo sapiens, UniProt P41143); assay: DOR agonists, SAR follow-up, image-based (AID 2370); format: functional
[20] = biological target: T8, Delta-type opioid receptor; assay: DOR antagonists, SAR follow-up, image-based (AID 2357); format: functional
[21] = biological target: Dual specificity protein phosphatase 3 (Homo sapiens, UniProt P51452); assay: SAR VHR1 Fluorescent Assay for In Vitro dose response studies Set 2. [Related pubchem assays (depositor defined):AID1654, AID1661, AID1878]; format: functional
Mu-type opioid receptor [22] = biological target: T7, Mu-type opioid receptor; assay: MOR agonists by imaging, SAR follow-up, image-based (AID 2352); format: functional
[23] = biological target: T6, Kappa-type opioid receptor; assay: KOR antagonists by imaging, SAR follow-up, image-based (AID 2348); format: functional
[24] = biological target: T5, Tyrosine-protein phosphatase non-receptor type 7; assay: SAR analysis of chemical inhibitors of HePTP using a Fluorescent assay - Set 2. [Related pubchem assays (depositor defined):AID1059, AID1077, AID1661, AID2085, AID521]; format: functional
[25] = biological target: T6, Kappa-type opioid receptor; assay: kappa opioid receptor blockers, cell-based, luminescence, beta-arrestin, SAR follow-up (AID 2285); format: functional
[26] = biological target: T6, Kappa-type opioid receptor; assay: SAR analysis of small molecule agonists of the kappa opioid receptor via a luminescent beta-arrestin assay - Set 3. [Related pubchem assays (depositor defined):AID1777, AID1785, AID1786, AID1966, AID2133, AID2136, AID2284, AID2500]; format: functional
Mu-type opioid receptor [27] = biological target: T7, Mu-type opioid receptor; assay: SAR Analysis of Agonists of the MOR Receptor using an Image-Based Assay - Set 3. [Related pubchem assays (depositor defined):AID1777, AID1785, AID1786, AID1966, AID2133, AID2136, AID2284, AID2285, AID2352]; format: functional
[28] = biological target: T8, Delta-type opioid receptor; assay: SAR Analysis of Agonists of the DOR Receptor using an Image-Based Assay - Set 3. [Related pubchem assays (depositor defined):AID1777, AID1786]; format: functional
Mu-type opioid receptor [29] = biological target: T7, Mu-type opioid receptor; assay: SAR Analysis of Agonists of the MOR Receptor using an Image-Based Assay - Set 2. [Related pubchem assays (depositor defined):AID1777, AID1785, AID1786, AID1966, AID2133, AID2136, AID2284, AID2285, AID2352]; format: functional
[30] = biological target: T8, Delta-type opioid receptor; assay: SAR Analysis of Antagonists of the DOR Receptor using an Image-Based Assay - Set 2. [Related pubchem assays (depositor defined):AID1777, AID1785, AID1786, AID1966, AID2133, AID2136, AID2284, AID2285, AID2357]; format: functional
[31] = biological target: T6, Kappa-type opioid receptor; assay: SAR analysis of Antagonists of the Kappa Opioid Receptor (KOR) using an Image-Based Assay - Set 2. [Related pubchem assays (depositor defined):AID1777, AID1785, AID1786, AID1966, AID2133, AID2136, AID2284, AID2285, AID2348]; format: functional
[32] = biological target: T6, Kappa-type opioid receptor; assay: KOR agonist analogs, arrestin-GFP redistribution, SAR follow-up, imaging, image-based, set 3 (AID 488833); format: functional
[33] = biological target: T6, Kappa-type opioid receptor; assay: SAR analysis of Agonists of the Kappa Opioid Receptor (KOR) using an Image-Based Assay - Set 2. [Related pubchem assays (depositor defined):AID1777, AID1786, AID1966, AID2133, AID2136, AID2284, AID2285, AID2359]; format: functional
Mu-type opioid receptor [34] = biological target: T7, Mu-type opioid receptor; assay: SAR Analysis of Antagonists of the MOR Receptor using an Image-Based Assay - Set 2. [Related pubchem assays (depositor defined):AID1777, AID1785, AID1786, AID1966, AID2133, AID2136, AID2284, AID2285, AID2420]; format: functional
[35] = biological target: T8, Delta-type opioid receptor; assay: SAR Analysis of Agonists of the DOR Receptor using an Image-Based Assay - Set 2. [Related pubchem assays (depositor defined):AID1777, AID1785, AID1786, AID1966, AID2133, AID2136, AID2284, AID2285, AID2370]; format: functional
[36] = biological target: T6, Kappa-type opioid receptor; assay: SAR analysis of small molecule agonists of the kappa opioid receptor via a luminescent beta-arrestin assay - Set 2. [Related pubchem assays (depositor defined):AID1777, AID1785, AID1786, AID1966, AID2133, AID2136, AID2284, AID449737]; format: functional
[37] = Counterscreen for AddAB inhibitors: absorbance-based bacterial cell-based high throughput dose response assay for inhibitors of bacterial viability. [Related pubchem assays (depositor defined):AID435030, AID449728, AID449731, AID488942, AID488955, AID488956]; format: functional
Exodeoxyribonuclease V = Exodeoxyribonuclease V (Escherichia coli (strain K12), UniProt P04993+P07648+P08394); assay: E. coli RecBCD inhibitors, dose response, counter-screen for AddAB inhibitor project, absorbance, V66 E. coli, mutant T4 phage (AID 492957); format: functional, cell-based, Escherichia coli str. K-12 substr. MG1655

T6 sequence (P41145 whole entry): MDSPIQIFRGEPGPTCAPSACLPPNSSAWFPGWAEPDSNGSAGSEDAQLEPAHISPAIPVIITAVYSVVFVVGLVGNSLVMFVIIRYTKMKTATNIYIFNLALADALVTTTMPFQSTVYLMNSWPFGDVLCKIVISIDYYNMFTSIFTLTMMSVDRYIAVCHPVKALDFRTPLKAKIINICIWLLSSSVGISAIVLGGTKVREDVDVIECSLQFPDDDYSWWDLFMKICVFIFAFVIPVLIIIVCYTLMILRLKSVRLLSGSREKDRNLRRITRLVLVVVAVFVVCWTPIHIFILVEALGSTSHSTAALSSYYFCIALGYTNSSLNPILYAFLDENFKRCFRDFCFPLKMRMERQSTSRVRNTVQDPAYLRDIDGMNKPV
T8 sequence (P41143 whole entry): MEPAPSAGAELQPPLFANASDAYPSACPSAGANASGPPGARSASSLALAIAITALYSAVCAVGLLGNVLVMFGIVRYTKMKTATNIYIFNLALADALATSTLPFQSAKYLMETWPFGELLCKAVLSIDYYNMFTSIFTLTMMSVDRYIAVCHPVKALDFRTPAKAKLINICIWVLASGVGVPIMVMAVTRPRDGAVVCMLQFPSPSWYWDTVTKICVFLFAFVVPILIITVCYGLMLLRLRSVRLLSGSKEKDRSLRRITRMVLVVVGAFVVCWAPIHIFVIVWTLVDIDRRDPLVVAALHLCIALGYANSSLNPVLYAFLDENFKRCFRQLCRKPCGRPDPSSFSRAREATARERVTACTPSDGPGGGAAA
T7 sequence (P35372 whole entry): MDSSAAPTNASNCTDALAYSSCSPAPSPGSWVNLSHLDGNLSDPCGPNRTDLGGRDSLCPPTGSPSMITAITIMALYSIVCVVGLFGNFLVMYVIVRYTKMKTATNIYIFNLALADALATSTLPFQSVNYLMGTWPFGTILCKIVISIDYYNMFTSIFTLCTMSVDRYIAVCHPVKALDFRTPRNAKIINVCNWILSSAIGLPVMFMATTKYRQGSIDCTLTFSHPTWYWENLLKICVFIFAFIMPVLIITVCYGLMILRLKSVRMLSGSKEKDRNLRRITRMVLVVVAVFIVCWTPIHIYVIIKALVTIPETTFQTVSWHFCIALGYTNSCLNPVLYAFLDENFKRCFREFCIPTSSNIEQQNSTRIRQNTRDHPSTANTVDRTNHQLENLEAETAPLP
T1 sequence (Q9HC97 whole entry): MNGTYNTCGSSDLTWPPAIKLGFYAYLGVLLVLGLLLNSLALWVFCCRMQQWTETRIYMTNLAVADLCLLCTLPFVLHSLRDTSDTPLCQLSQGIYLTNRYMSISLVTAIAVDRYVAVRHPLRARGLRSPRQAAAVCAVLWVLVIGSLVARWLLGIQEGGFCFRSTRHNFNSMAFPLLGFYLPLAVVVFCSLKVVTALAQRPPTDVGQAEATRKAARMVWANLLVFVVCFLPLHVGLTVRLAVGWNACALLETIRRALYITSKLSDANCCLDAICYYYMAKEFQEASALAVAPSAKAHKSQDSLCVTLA
T3 sequence (P34972 whole entry): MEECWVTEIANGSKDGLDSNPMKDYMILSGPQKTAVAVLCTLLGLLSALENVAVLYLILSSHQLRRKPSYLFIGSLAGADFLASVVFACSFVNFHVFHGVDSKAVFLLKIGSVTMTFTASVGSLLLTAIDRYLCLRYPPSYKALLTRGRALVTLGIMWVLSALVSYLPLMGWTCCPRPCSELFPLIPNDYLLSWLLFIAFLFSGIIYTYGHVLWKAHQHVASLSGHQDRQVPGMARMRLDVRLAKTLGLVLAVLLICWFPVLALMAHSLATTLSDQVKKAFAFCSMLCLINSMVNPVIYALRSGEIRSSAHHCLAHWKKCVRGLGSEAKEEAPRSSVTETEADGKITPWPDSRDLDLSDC
T2 sequence (P21554 whole entry): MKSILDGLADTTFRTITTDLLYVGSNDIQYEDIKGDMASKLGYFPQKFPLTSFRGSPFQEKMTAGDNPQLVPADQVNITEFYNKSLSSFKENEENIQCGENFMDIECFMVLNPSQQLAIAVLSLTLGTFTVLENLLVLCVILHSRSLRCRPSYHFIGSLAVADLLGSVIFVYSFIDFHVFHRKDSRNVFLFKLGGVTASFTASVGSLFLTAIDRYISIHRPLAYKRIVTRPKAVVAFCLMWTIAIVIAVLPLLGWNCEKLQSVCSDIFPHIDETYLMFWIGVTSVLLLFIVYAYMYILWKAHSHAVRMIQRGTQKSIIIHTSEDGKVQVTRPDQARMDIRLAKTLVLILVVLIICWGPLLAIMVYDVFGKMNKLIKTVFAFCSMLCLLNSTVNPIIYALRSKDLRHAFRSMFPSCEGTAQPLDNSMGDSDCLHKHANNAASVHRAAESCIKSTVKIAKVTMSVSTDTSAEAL
Chain of Sphingosine 1-phosphate receptor 1 (P21453 whole entry): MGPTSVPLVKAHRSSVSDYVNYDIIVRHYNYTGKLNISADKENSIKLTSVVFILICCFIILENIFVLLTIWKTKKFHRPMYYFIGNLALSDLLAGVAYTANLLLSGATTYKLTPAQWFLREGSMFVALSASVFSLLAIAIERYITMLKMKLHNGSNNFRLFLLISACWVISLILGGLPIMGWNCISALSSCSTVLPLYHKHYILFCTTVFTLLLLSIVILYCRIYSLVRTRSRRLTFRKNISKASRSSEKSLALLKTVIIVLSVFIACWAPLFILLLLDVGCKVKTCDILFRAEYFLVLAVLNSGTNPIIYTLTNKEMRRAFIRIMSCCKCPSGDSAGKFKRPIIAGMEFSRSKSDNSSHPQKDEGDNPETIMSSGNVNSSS
Chain of G-protein coupled receptor 55 (Q9Y2T6 whole entry): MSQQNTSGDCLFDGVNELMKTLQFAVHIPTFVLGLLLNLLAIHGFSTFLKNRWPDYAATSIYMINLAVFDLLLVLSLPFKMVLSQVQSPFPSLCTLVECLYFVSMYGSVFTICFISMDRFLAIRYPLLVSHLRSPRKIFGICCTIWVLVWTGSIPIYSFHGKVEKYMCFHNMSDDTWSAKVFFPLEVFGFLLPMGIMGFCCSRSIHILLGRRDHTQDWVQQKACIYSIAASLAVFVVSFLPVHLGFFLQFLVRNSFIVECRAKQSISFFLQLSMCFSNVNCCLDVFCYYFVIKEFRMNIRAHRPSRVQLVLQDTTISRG
Chain of Dual specificity protein phosphatase 3 (P51452 whole entry): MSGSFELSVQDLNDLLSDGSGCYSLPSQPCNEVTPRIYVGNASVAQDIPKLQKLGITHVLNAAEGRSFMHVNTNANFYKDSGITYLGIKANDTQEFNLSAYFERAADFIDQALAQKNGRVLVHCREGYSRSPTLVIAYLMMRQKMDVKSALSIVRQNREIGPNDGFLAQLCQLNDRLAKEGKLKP

Cc1ccc(C2(C(=O)N3CCC(n4nc(-c5ccccc5)oc4=O)CC3)CC2)cc1
IC50 [1]: > 32 µM (inactive) | IC50 (Cannabinoid receptor 1 [2]): 17.7 µM (inactive) | EC50 [3]: > 32 µM (inactive) | EC50 (Cannabinoid receptor 1 [4]): > 32 µM (inactive) | EC50 (Cannabinoid receptor 2 [5]): > 32 µM (inactive) | IC50 (Cannabinoid receptor 2 [6]): > 32 µM (inactive) | IC50 [7]: 4.28 µM (active)

O=C(CSc1nc2ccccc2c(=O)n1-c1ccc(F)cc1)Nc1ccc2c(c1)CCC2
IC50 (Vero [8]): 24.5 µM (active) | CC50 (Vero [9]): > 133 µM (active) | CC50 (Vero [10]): > 80 µM (active) | CC50 (Vero [11]): > 200 µM (active) | IC50 (Vero [12]): 20.6 µM (active)

C=CCn1c(SCc2ccc(C#N)cc2)nnc1-c1ccc(C)cc1
AC50 [13]: 98.3 µM (active)

CC(=O)c1cc2ccc(O)cc2oc1=O
EC50 [14]: 1.88 µM (active) | EC50 [15]: 4.14 µM (active)

O=C(NC1CCCCC1)c1cc2nc3c(c(C(F)(F)F)n2n1)CCCC3
EC50 (Troponin, cardiac muscle): > 71.5 µM (inactive)

CCOc1ccc(NC(=O)Nc2ccc3nc(-c4ccco4)c(-c4ccco4)nc3c2)cc1
IC50 [16]: 10.4 µM (active)

O=C(NC(NC(=S)Nc1ccc(Cl)cc1Cl)C(Cl)(Cl)Cl)OCc1ccccc1 (centres undefined)
EC50 [17]: > 32 µM (inactive) | IC50 (Mu-type opioid receptor [18]): > 32 µM (inactive) | EC50 [19]: > 32 µM (inactive) | IC50 [20]: > 32 µM (inactive) | IC50 [21]: > 100 µM (inactive) | EC50 (Mu-type opioid receptor [22]): > 32 µM (inactive) | IC50 [23]: 879 nM (active) | IC50 [24]: > 100 µM (inactive) | IC50 [25]: 2.09 µM (active)

Clc1ccc(CSc2nnc(-c3ccccn3)n2Cc2cccs2)c(Cl)c1
EC50 [26]: 1.38 µM (active) | EC50 (Mu-type opioid receptor [27]): > 32 µM (inactive) | EC50 [28]: > 64 µM (inactive) | EC50 (Mu-type opioid receptor [29]): > 32 µM (inactive) | IC50 [30]: > 32 µM (inactive) | IC50 [31]: > 32 µM (inactive) | EC50 [32]: 694 nM (active) | EC50 [33]: 8.11 µM (active) | IC50 (Mu-type opioid receptor [34]): > 32 µM (inactive) | EC50 [35]: > 32 µM (inactive) | EC50 [36]: 2.27 µM (active)

O=C(N/N=C\c1cccc(Cl)c1)c1ccc(Cn2cc(Br)c([N+](=O)[O-])n2)o1
IC50 [37]: > 119 µM (inactive) | IC50 (Exodeoxyribonuclease V): > 119 µM (inactive)
